ChEMBL document CHEMBL3286198, “Targeting integrins αvβ3 and α5β1 with new β-lactam derivatives” (Eur J Med Chem, 2014)
Calls of active or inactive are those of the source. The calls are words filed in the database; no cut-off is given here.

Experiments:
Type in all cases: cell-based
[1] = target: Integrin alpha-IIb/beta-3 (Homo sapiens) (UniProt P05106+P08514); experiment: Agonist activity at alpha2bbeta3 integrin in PMA-stimulated human K562 cells assessed as increase of cell adhesion after 30 mins by flow cytometry in presence of tirofiban
Integrin alpha-V/beta-3 [2] = target: T1, Integrin alpha-V/beta-3 (Homo sapiens, UniProt P05106+P06756); experiment: Agonist activity at alphavbeta3 integrin in human SK-MEL-24 cells assessed as increase of fibronectin-mediated cell adhesion at 10 ug/ml after 30 mins by fluorescence assay in presence of neutralizing antibodies of alphav
K562 = experiment: Selectivity ratio of EC50 for alphavbeta3 integrin in human SK-MEL-24 cells to EC50 for alpha5beta1 integrin in human K562 cells
Integrin alpha-5/beta-1 [3] = target: T2, Integrin alpha-5/beta-1 (Homo sapiens, UniProt P05556+P08648); experiment: Agonist activity at alpha5beta1 integrin in human K562 cells assessed as increase of fibronectin-mediated cell adhesion at 10 ug/ml after 30 mins by fluorescence assay in presence of neutralizing antibody of beta1
Integrin alpha-V/beta-3 [4] = target: T1, Integrin alpha-V/beta-3; experiment: Agonist activity at alphavbeta3 integrin in human SK-MEL-24 cells assessed as increase of fibronectin-mediated cell adhesion after 30 mins by fluorescence assay
Integrin alpha-4/beta-1 = Integrin alpha-4/beta-1 (Homo sapiens, UniProt P05556+P13612); experiment: Antagonist activity at alpha4beta1 integrin in human Jurkat E6.1 cells assessed as inhibition of VCAM1-mediated cell adhesion after 30 mins by fluorescence assay
Integrin alpha-V/beta-3 [5] = target: T1, Integrin alpha-V/beta-3; experiment: Agonist activity at alphavbeta3 integrin in human SK-MEL-24 cells assessed as increase of cell adhesion after 30 mins by fluorescence assay
Integrin alpha-5/beta-1 [6] = target: T2, Integrin alpha-5/beta-1; experiment: Agonist activity at alpha5beta1 integrin in human K562 cells assessed as increase of cell adhesion after 30 mins by fluorescence assay
[7] = target: Integrin alpha-L/beta-2 (LFA-1) (Homo sapiens, UniProt P05107+P20701); experiment: Antagonist activity at alphaLbeta2 integrin in human Jurkat E6.1 cells assessed as inhibition of ICAM1-mediated cell adhesion after 30 mins by fluorescence assay
Integrin alpha-5/beta-1 [8] = target: T2, Integrin alpha-5/beta-1; experiment: Agonist activity at alpha5beta1 integrin in human K562 cells assessed as increase of fibronectin-mediated cell adhesion after 30 mins by fluorescence assay

Chain of Integrin alpha-4/beta-1 (P05556 whole entry): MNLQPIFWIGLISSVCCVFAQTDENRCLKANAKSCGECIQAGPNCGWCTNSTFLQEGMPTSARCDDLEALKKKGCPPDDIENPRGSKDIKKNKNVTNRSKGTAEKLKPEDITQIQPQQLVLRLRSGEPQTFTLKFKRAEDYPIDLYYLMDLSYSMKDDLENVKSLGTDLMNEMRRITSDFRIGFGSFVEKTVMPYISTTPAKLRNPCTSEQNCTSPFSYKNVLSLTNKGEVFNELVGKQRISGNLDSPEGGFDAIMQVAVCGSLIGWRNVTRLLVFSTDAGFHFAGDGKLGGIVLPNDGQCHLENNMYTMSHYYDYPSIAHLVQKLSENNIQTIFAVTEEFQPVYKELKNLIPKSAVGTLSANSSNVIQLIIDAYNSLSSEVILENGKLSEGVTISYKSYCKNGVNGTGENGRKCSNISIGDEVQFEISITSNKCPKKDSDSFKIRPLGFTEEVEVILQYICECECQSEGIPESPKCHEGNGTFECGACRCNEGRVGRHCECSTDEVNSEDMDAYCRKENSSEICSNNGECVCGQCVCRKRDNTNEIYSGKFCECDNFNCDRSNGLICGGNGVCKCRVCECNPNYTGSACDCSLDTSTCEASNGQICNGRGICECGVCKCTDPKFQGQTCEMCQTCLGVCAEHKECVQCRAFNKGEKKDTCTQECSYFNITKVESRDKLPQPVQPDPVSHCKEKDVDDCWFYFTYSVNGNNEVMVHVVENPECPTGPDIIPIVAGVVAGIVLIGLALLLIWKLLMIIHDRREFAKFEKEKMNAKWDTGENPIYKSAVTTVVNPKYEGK
Chain of Integrin alpha-4/beta-1 (P13612 whole entry): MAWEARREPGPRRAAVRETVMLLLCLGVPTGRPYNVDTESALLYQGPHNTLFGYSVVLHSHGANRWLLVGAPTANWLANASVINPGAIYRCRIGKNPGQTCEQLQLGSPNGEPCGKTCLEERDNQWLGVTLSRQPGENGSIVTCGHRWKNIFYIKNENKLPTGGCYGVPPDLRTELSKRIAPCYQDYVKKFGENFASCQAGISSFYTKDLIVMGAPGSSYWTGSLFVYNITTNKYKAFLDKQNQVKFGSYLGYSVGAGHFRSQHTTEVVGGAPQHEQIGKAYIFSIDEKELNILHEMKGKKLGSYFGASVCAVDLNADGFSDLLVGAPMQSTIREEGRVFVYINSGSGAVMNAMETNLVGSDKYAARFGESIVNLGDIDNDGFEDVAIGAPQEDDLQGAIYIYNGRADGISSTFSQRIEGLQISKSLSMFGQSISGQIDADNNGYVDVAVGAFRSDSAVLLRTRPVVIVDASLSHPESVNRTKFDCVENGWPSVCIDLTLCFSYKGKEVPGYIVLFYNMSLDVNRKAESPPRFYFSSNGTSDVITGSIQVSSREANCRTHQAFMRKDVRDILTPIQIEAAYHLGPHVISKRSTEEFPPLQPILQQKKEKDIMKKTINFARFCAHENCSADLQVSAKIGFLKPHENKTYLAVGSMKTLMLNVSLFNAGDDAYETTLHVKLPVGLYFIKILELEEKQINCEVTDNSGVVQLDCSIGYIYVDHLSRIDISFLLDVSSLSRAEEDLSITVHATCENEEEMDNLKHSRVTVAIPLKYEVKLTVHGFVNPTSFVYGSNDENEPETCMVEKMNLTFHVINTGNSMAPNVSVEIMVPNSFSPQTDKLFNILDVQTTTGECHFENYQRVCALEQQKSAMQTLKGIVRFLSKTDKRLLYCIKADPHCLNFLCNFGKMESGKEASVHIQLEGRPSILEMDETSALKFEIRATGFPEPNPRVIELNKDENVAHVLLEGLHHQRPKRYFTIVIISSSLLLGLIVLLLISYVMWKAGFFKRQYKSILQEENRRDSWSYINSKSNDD
Chain of Integrin alpha-L/beta-2 (LFA-1) (P20701 whole entry): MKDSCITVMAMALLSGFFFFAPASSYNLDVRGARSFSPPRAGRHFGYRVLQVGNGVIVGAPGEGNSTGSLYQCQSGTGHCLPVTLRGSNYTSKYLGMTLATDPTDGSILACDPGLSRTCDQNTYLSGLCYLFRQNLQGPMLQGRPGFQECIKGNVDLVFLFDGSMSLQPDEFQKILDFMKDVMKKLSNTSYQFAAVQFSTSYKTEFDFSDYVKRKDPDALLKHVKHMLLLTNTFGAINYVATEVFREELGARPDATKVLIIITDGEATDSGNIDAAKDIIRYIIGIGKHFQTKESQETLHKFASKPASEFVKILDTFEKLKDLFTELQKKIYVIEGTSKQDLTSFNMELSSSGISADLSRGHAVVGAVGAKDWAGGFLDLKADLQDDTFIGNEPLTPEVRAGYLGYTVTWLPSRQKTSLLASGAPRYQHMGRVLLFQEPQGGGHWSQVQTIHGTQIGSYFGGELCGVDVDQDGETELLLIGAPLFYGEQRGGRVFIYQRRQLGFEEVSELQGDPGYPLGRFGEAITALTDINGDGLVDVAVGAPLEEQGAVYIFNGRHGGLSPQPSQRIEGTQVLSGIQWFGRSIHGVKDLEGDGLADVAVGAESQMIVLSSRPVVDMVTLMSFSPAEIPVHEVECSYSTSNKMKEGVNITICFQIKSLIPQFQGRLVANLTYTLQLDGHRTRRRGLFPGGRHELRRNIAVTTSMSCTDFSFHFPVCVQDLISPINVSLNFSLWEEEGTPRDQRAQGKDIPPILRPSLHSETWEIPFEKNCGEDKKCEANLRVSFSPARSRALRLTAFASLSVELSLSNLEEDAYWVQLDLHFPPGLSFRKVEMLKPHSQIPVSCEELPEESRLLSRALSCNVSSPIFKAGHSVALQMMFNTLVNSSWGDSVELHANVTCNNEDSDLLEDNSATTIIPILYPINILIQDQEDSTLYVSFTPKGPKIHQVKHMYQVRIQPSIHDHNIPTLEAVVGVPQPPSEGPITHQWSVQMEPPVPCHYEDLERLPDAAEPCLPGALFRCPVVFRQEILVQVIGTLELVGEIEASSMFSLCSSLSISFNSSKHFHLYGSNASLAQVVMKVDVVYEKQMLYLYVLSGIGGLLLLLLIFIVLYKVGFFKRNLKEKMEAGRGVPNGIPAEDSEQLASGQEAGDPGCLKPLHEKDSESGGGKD
Chain of Integrin alpha-L/beta-2 (LFA-1) (P05107 whole entry): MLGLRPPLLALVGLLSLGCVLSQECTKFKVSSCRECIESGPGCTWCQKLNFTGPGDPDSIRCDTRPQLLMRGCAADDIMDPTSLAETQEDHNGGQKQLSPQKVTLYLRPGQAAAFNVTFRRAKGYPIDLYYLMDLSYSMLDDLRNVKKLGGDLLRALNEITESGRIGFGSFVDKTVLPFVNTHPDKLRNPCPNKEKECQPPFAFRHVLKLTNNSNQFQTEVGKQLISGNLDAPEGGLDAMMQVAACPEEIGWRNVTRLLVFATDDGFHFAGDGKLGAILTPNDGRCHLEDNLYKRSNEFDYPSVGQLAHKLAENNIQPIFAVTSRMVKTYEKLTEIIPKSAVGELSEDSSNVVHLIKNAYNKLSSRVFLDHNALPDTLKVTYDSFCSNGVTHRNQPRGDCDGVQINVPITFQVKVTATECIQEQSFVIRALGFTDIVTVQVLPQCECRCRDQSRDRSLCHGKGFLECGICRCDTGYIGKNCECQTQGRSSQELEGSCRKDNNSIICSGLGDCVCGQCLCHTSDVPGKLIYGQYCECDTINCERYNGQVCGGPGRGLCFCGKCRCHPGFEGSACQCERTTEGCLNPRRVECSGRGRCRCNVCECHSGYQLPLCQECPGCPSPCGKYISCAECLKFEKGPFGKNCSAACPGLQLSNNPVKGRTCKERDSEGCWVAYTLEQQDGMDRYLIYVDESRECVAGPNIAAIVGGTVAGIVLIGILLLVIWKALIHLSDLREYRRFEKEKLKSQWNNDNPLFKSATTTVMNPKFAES

SMILES | Activity [1] | Activity (Integrin alpha-V/beta-3 [2]) | Ratio EC50 (K562) | Activity (Integrin alpha-5/beta-1 [3]) | Activity (Integrin alpha-V/beta-3 [4]) | EC50 (Integrin alpha-V/beta-3 [4]) [nM] | IC50 (Integrin alpha-4/beta-1) [nM] | Activity (Integrin alpha-V/beta-3 [5]) | Activity (Integrin alpha-5/beta-1 [6]) | IC50 [7] [nM] | Activity (Integrin alpha-5/beta-1 [8]) | EC50 (Integrin alpha-5/beta-1 [8]) [nM]
NCc1ccc(NC(=O)N2C(=O)CC2CC(=O)O)cc1 (stereo not drawn) | Active | inactive | 5 | inactive | Dose-dependent effect | 55 | ≥ 100000 | Active | Active | ≥ 100000 | Dose-dependent effect | 12
NCc1ccc(NC(=O)N2C(=O)CC2CC(=O)NCC(=O)O)cc1 (stereo not drawn) | Active | inactive | – | inactive | Dose-dependent effect | 11 | ≥ 100000 | Active | Active | ≥ 100000 | Dose-dependent effect | 763
NCc1ccc(NC(=O)N2C(=O)C[C@H]2C(=O)O)cc1 | – | – | 1000 | – | Dose-dependent effect | 10400 | – | – | – | – | Dose-dependent effect | 365
